Patent publication US10752626B2, “Iso-citrate dehydrogenase (IDH) inhibitor” (SHANGHAI METON PHARMACEUTICAL CO., LTD, priority 2016, dated 2020)
Where two headings read alike, the source gives them in different places.

Columns and labels:
[1] = Metabolic stability in mouse plasma; assay type: in vitro ADME
Experimental: Blank male/female mouse plasma was provided by 3D BioOptima (Suzhou, China) and was freshly collected prior to use. The acetonitrile was purchased from Honeywell International Inc. (New Jersey, U.S.).
At each set time point (0, 15, 30, 60, 120 min), small aliquots from the plasma samples was transferred (each of 20 μL) into the mirocentrifuge tubes, then was added into 200 μL IS containing acetonitrile for protein precipitation. […] All incubations were performed in duplicate. In vitro compound stability was calculated by using the following equations: […]
where Ct is the area ratio of the sample to the IS at […] post-incubation, and C0 is the area ratio of the sample to the IS at 0 h pre-incubation.
In this study, the metabolic stability of the compounds in mouse plasma was assessed according to the method disclosed in Test 3 of the Biological evaluation section.

[2] = In vivo pharmacokinetics in ICR mouse
Experimental: The pharmacokinetic properties of the compounds of the present disclosure were assessed in ICR mice (male, 6-8 weeks, 20.0-25.3 g) after p.o. and i.v. administration.
The ICR mice were purchased from Vital River Laboratory Technology Co., Ltd. (Beijing, China), housed in solid bottom polypropylene cages with sterilized bedding, kept in a room with 40% to 70% humidity, 20 to 25° C. room temperature, 10 to 20 air changes/hour, and on a 12-hour light/dark cycle except when interruptions are necessitated by study activities. The mice were fed with sterilized diet from Shanghai SLAC Laboratory Animal Co., Ltd. (Shanghai, China) and sterilized water. All animals were examined upon receipt and were acclimated for at least 3 days. Only the ones that appear to be healthy were selected for the study basing on overall health, body weight, or other relevant data as appropriate. Individual animal in each group was identified by ear notch.
The mice were fasted overnight prior to treatment, but having free access to drinking water all the time. Before dosing, each mouse was weighed and the actual dose volume for each mouse was calculated by using the formula below: Dose Volume (mL) [Nominal Dose (mg·kg^−1)/Dose Concentration (mg·mL^−1)]×Animal Body Weight (kg)
The actual body weights and the actual dose volumes were recorded accordingly.
For each test group, nine mice were used, and mice in different groups were given a single p.o dose of the test compound at 10 mg·kg^−1, or a single i.v. dose of 2 mg·kg^−1 respectively. Blood samples (e.g., at least […]) were collected into EDTA-K2 tubes at pre-determined time points, for example, pre-dose, 5 min, 15 min, 30 min, 1 h, 2 h, 4 h, 8 h, 12 h, and 24 h post-dose. Each mouse was collected the blood sample at three discontinuous time points, and three mice were used for sampling at each time point. The collected samples were centrifuged at 5500 rpm for 10 min to obtain plasma samples, which were later measured by LC-MS/MS. Data of plasma concentration vs. time were processed by linear regression analysis. All pharmacokinetic parameters were calculated using non-compartment model of Pharsight Phoenix 6.3.
The pharmacokinetics (PK) studies of the compounds were conducted in ICR mice (male, 6-8 weeks, 20.0-25.3 g, Vital River Laboratory Technology Co., Ltd.) administrated a single p.o. dose of 10 mg·kg^−1 or a single i.v. dose of 2 mg·kg^−1 according to the method disclosed in Test 4 of the Biological evaluation section.
Each experiment was independently performed in triplicate. The plasma concentration of an exemplary Compound 23 after a p.o. administration of 10 mg·kg^−1 in ICR mouse is plotted as function of time in FIG. 6. The plasma concentration of the exemplary Compound 23 after an i.v. injection of 2 mg·kg^−1 in ICR mouse is plotted as function of time in FIG. 7. Each data represents the mean plasma concentration of the three experiments with standard error of mean (SEM) as error bars.

[3] = male, plasma, iv, i.v. dose of 2 mg · kg^−1
[4] = male, plasma, po, p.o. dose of 10 mg · kg^−1

CCN1Cc2c(ccnc2N[C@@H](C)c2ccc(Oc3ccc(C)cc3)cc2)C1=O [Compound 16, (S)-2-ethyl-4-(1-(4-(p-tolyloxy)phenyl)ethylamino)-2,3-dihydro-1H-pyrrolo [3,4-c]pyridin-1-one]
period over which compound remains stable in mouse plasma [1]: at least 2 hrs | K ([1]; #2): 0.000737 min⁻¹ | K ([1]; Mean): 0.000737 min⁻¹ | half-life at 2 μM ([1]; both sexes, #2): 15.7 h | % remaining #1 ([1]; incubation 0 min): 100% | % remaining #2 ([1]; incubation 0 min): 100% | Ln (% remaining) #1 ([1]; incubation 0 min): 4.61 | Ln (% remaining) #2 ([1]; incubation 0 min): 4.61 | Mean Ln(% remaining) ([1]; incubation 0 min): 4.61 | % remaining #1 ([1]; incubation 15 min): 99.8% | % remaining #2 ([1]; incubation 15 min): 106% | Ln (% remaining) #1 ([1]; incubation 15 min): 4.60 | Ln (% remaining) #2 ([1]; incubation 15 min): 4.66 | Mean Ln(% remaining) ([1]; incubation 15 min): 4.63 | % remaining #1 ([1]; incubation 30 min): 95.0% | % remaining #2 ([1]; incubation 30 min): 102% | Ln (% remaining) #1 ([1]; incubation 30 min): 4.55 | Ln (% remaining) #2 ([1]; incubation 30 min): 4.62 | Mean Ln(% remaining) ([1]; incubation 30 min): 4.59 | % remaining #1 ([1]; incubation 60 min): 98.4% | % remaining #2 ([1]; incubation 60 min): 98.9% | Ln (% remaining) #1 ([1]; incubation 60 min): 4.59 | Ln (% remaining) #2 ([1]; incubation 60 min): 4.59 | Mean Ln(% remaining) ([1]; incubation 60 min): 4.59 | % remaining #1 ([1]; incubation 120 min): 105% | % remaining #2 ([1]; incubation 120 min): 94.1% | Ln (% remaining) #1 ([1]; incubation 120 min): 4.65 | Ln (% remaining) #2 ([1]; incubation 120 min): 4.54 | Mean Ln(% remaining) ([1]; incubation 120 min): 4.60 | average percentage remaining ([1]; within the 2 hrs period): above 98.5%

CCN1Cc2c(ccnc2N[C@@H](C)c2ccc(Oc3ccccc3)c(F)c2)C1=O [Compound 23, (S)-2-ethyl-4-((1-(3-fluoro-4-phenoxyphenyl)ethyl)amino)-2,3-dihydro-1H-pyrrolo[3,4-c]pyridin-1-one]
AUMC0-inf ([2]; i.v. dose of 2 mg · kg^−1): 1283 ng · h^2 · mL^−1 | AUMC0-t ([2]; i.v. dose of 2 mg · kg^−1): 1138 ng · h^2 · mL^−1 | Kel ([2]; i.v. dose of 2 mg · kg^−1): 0.244 h⁻¹ | MRTIV ([2]; i.v. dose of 2 mg · kg^−1): 0.98 h | AUC(0-t) [2, 3]: 1300 ng·h/mL | clearance [2, 3]: 25.4 mL/min/kg | half-life [2, 3]: 2.8 h | AUC0-inf ([2]; male, plasma, iv, i.v. dose of 2 mg · kg^−1, read-out: AUC0-inf): 1310 ng·h/mL | Vd ([2]; male, plasma, iv, i.v. dose of 2 mg · kg^−1, read-out: Vdss): 1.49 L/kg | AUC(0-t) [2, 4]: 2890 ng·h/mL | Cmax [2, 4]: 1180 ng/mL | Tmax [2, 4]: 0.25 h | half-life [2, 4]: 1.8 h | AUC0-inf ([2]; p.o. dose of 10 mg · kg^−1): 2917 ng · h · mL^1 | AUMC0-inf ([2]; p.o. dose of 10 mg · kg^−1): 7550 ng · h^2 · mL^−1 | AUMC0-t ([2]; p.o. dose of 10 mg · kg^−1): 7099 ng · h^2 · mL^−1 | F ([2]; p.o. dose of 10 mg · kg^−1): 44% | Kel ([2]; p.o. dose of 10 mg · kg^−1): 0.385 h⁻¹ | MRTPO ([2]; p.o. dose of 10 mg · kg^−1): 2.6 h
